IC50 data for 20 compounds are collected here from patent US20230101747A1 (Schrödinger, Inc., priority 2019, published 2023).

The test system of assay [1] is phosphorylation of MCM2 S53 (CDC7 substrate) in colo205 cells. Briefly: Phosphorylated MCM2 MSD electrochemiluminescence assay. It counts as cell-based. Particulars: Homo sapiens, read-out: pMCM2-S53 MSD Colo205 IC50. The method, then:
Phosphorylated MCM2 MSD Electrochemiluminescence Assay
The effect of CDC7 inhibitors on cellular phosphorylation of the CDC7 substrate MCM2 was determined using the following protocol:
A total of 40,000 colo205 cells in 100 uL culture medium (1640 medium+10% Fetal bovine serum+1% Penicillin-Streptomycin) were plated in 96-well cell culture plates and allowed to attach for 6 hours. 3-fold serial dilutions of test compounds were prepared in completed PBS at 25× final concentration and 4 uL of each were added to the cells and incubated for 20 hours at 37° C., 5% CO2. Each concentration was tested in duplicate. After the 20 h incubation, cells were washed with 150 uL PBS and lysed with 40 uL MSD lysis buffer (obtained from Meso Scale Diagnostics) supplied with 1× complete ULTRA cocktail inhibitor (obtained from Roche). To detect phosphorylation of MCM2 S53, 30 μL of capture antibody solution (obtained from Abnova, catalog number H00004171-M01, 1:500) was added to each well of MULTI-ARRAY 96-well High Bind Plate, and incubated overnight. The antibody solution was removed, wells blocked with BSA solution and plates washed, followed by addition of 30 ul of cell lysate per well. After 2 h incubation, plates were washed. 30 μL of 1× detection antibody solution (obtained from Abcam, catalog number ab109133, 1:1000) was then added to each well and incubate for 1 hour. Plates were washed and 30 μL of 1× secondary antibody solution (obtained from MSD, catalog number R32AB-1, 1:5000) was added to each well and incubate for 1 hour. Plates were washed and 150 μL of 1× Read Buffer T was added to each well of the MSD plate. The electrochemiluminescence signal was measured on a MESO SECTOR S600 plate reader. The percentage of remaining phosphorylated MCM2 signal was calculated following the equation below.
HC (high control): Cells treated with DMSO Cpds: Cells treated with test compounds LC (low control): Cells treated with positive control CDC7 inhibitor

For assay [2], the target named is T1, Full length human CDC7 protein co-expressed with DBF4 (Homo sapiens, UniProt O00311).
T1 construct: Full length human CDC7 protein co-expressed with DBF4; purchased SignalChem (China)
Description: CDC7 kinase biochemical assay (ADP-Glo, PDKtide substrate). Particulars: 0.1 nM CDC7/DBF4, 1 uM ATP, 10 uM PDKtide, 4 h; read-out: CDC7 ADP-Glo PDKtide IC50. Summed up:
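Full-length human CDC7 co-expressed with DBF4 (0.1 nM) incubated 4 h with 1 uM ATP and 10 uM PDKtide in 40 mM Tris pH 7.5, 20 mM MgCl2, 0.1 mg/ml BSA, 50 uM DTT. ADP formed read by ADP-Glo luminescence. % inhibition scaled between DMSO (high) and reference CDC7 inhibitor (low) controls.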

[3] abbreviates: COLO 205, colo205 cells, 20 h incubation.

As usually defined, the pIC50 is the IC50 on a negative log10 scale, so that one unit is a factor of ten.

pIC50: −log10 of the molar value. Where two headings read alike, the source gives them in different places.

T1 sequence (O00311 whole entry): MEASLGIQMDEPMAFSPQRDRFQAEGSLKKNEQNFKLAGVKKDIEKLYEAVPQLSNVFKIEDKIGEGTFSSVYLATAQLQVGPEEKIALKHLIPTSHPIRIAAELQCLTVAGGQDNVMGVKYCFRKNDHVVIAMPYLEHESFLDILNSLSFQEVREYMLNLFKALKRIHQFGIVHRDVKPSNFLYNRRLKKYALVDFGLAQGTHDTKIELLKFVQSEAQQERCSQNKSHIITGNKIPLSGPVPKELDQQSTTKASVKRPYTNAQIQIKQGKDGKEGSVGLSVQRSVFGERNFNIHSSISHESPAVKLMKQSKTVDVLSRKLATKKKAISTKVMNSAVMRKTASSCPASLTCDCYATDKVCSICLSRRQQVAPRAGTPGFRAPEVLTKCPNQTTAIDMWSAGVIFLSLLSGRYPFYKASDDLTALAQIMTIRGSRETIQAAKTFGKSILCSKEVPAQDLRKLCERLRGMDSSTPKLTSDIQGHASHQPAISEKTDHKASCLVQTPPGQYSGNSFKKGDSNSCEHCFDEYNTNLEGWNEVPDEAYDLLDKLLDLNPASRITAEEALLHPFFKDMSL
T1 sequence (Q9UBU7 whole entry partner): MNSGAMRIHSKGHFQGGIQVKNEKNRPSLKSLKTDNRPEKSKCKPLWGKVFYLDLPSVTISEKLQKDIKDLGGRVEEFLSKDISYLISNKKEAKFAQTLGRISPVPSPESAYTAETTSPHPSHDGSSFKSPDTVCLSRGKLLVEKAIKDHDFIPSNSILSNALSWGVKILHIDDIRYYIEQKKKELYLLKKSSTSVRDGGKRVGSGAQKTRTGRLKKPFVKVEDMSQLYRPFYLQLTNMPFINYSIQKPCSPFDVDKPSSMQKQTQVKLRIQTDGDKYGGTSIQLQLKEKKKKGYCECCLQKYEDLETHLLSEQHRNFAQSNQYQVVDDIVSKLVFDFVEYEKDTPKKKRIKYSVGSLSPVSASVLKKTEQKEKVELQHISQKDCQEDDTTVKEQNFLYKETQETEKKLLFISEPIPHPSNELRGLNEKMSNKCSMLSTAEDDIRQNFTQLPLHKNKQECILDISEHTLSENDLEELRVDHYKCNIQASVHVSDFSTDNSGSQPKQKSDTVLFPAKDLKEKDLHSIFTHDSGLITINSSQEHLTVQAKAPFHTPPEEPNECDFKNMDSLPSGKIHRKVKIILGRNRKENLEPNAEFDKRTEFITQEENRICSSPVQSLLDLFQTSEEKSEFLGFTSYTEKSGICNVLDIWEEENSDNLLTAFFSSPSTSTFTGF

`CN1CC(F)(F)C[C@H]1[C@H]1CN2CC(F)(F)Cc3c(-c4cn[nH]c4)sc(c32)C(=O)N1` [Compound 136, (R)-7-((S)-4,4-difluoro-1-methylpyrrolidin-2-yl)-4,4-difluoro-2-(1H-pyrazol-4-yl)-4,5,7,8-tetrahydro-3H-1-thia-5a,8-diazabenzo[cd]azulen-9(6H)-one]: the values for the pIC50 in assay [1] (setting [3]) and in assay [2] were 7.80 and above 9.00, respectively.

For `COC[C@@H]1CN2CCOc3c(-c4cn[nH]c4)sc(c32)C(=O)N1` [Compound 54, (S)-7-(methoxymethyl)-2-(1H-pyrazol-4-yl)-4,5,7,8-tetrahydro-3-oxa-1-thia-5a,8-diazabenzo[cd]azulen-9(6H)-one], the values for the negative logarithm of the IC50 (pIC50) in assay [1] (setting [3]) and in assay [2] were 6.96 and above 9.00, respectively.

Consider `O=C1NC[C@@H](COCc2ccccc2)N2CCOc3c(-c4cn[nH]c4)sc1c32` [Compound 38, (S)-6-((benzyloxy)methyl)-2-(1H-pyrazol-4-yl)-4,5,7,8-tetrahydro-3-oxa-1-thia-5a,8-diazabenzo[cd]azulen-9(6H)-one], for which the pIC50 in assay [1] (setting [3]) is 5.74; in assay [2], 8.00 to 9.00.

On to `COC[C@H]1CN2C[C@H](F)Cc3c(-c4cn[nH]c4)sc(c32)C(=O)N1` (single isomer, unassigned) [Compound 126], for which the pIC50 in assay [1] (setting [3]) was 6.04; in assay [2] it was above 9.00.

Take `COC[C@H]1CN2CC(F)(F)Cc3c(-c4cn[nH]c4)sc(c32)C(=O)N1` [Compound 103, (10R)-6,6-difluoro-10-(methoxymethyl)-3-(1H-pyrazol-4-yl)-2-thia-8,11-diazatricyclo [6.4.1.0^4,13]trideca-1(13),3-dien-12-one]: the pIC50 in assay [1] (setting [3]) was 7.82; in assay [2] it was above 9.00.

In the case of `COC[C@@H]1CNC(=O)c2sc(-c3cn[nH]c3)c3c2N1CCO3` [Compound 55, (S)-6-(methoxymethyl)-2-(1H-pyrazol-4-yl)-4,5,7,8-tetrahydro-3-oxa-1-thia-5a,8-diazabenzo[cd]azulen-9(6H)-one], the pIC50 in assay [1] (setting [3]) is 7.68; in assay [2] it was above 9.00.

As for `O=C1N[C@@H](CO)CN2CCCc3c(-c4cn[nH]c4)sc1c32` [Compound 32, (R)-7-(hydroxymethyl)-2-(1H-pyrazol-4-yl)-4,5,7,8-tetrahydro-3H-1-thia-5a,8-diazabenzo[cd]azulen-9(6H)-one], the pIC50 was 6.09 in assay [1] (setting [3]) and above 9.00 in assay [2].

Consider `O=C1NCCN2c3c1sc(-c1cn[nH]c1)c3OC[C@@H]2CO` [Compound 49, (S)-5-(hydroxymethyl)-2-(1H-pyrazol-4-yl)-4,5,7,8-tetrahydro-3-oxa-1-thia-5a,8-diazabenzo[cd]azulen-9(6H)-one], for which the results for the pIC50 in assay [1] (setting [3]) and in assay [2] were 6.29 and above 9.00, respectively.

For the compound `O=C1N[C@@H](COC(F)F)CN2CC(F)(F)Cc3c(-c4cn[nH]c4)sc1c32` [Compound 142, (R)-7-((difluoromethoxy)methyl)-4,4-difluoro-2-(1H-pyrazol-4-yl)-4,5,7,8-tetrahydro-3H-1-thia-5a,8-diazabenzo[cd]azulen-9(6H)-one], the pIC50 was 8.30 in assay [1] (setting [3]) and above 9.00 in assay [2].

As to `O=C1NC[C@H](CO)N2CCOc3c(-c4ccncc4)sc1c32` [Compound 50, (R)-6-(hydroxymethyl)-2-(pyridin-4-yl)-4,5,7,8-tetrahydro-3-oxa-1-thia-5a,8-diazabenzo[cd]azulen-9(6H)-one], the pIC50 in assay [1] (setting [3]) is 6.57; in assay [2], above 9.00.

Consider `O=C1N[C@@H](C23CCC(CC2)O3)CN2CC(F)(F)Cc3c(-c4cn[nH]c4)sc1c32` (single isomer, unassigned) [Compound 121], for which the pIC50 in assay [1] (setting [3]) is 7.92; in assay [2], above 9.00.

`COC[C@@H]1CN2CC(F)(F)Cc3c(-c4cn[nH]c4)sc(c32)C(=O)N1` [Compound 115, (S)-4,4-difluoro-7-(methoxymethyl)-2-(1H-pyrazol-4-yl)-4,5,7,8-tetrahydro-3H-1-thia-5a,8-diazabenzo[cd]azulen-9(6H)-one]: the figures for the negative-log IC50 (pIC50) in assay [1] (setting [3]) and in assay [2] were 6.66 and above 9.00, respectively.

On to `C[C@H]1CN2CCOc3c(-c4cn[nH]c4)sc(c32)C(=O)N1` [Compound 16, (S)-7-methyl-2-(1H-pyrazol-4-yl)-4,5,7,8-tetrahydro-3-oxa-1-thia-5a,8-diazabenzo[cd]azulen-9(6H)-one], for which the negative-log IC50 (pIC50) in assay [1] (setting [3]) was 7.80; in assay [2] it was above 9.00.

As to `COC1(C[C@@H]2CNC(=O)c3sc(-c4cn[nH]c4)c4c3N2CCC4)CC1` [Compound 91, (9R)-9-[(1-methoxycyclopropyl)methyl]-3-(1H-pyrazol-4-yl)-2-thia-8,11-diazatricyclo [6.4.1.0^4,13]trideca-1(13),3-dien-12-one], the values for the pIC50 in assay [1] (setting [3]) and in assay [2] were 6.18 and above 9.00, respectively.

As to `C[C@@H]1CN2CC(F)(F)Oc3c(-c4cn[nH]c4)sc(c32)C(=O)N1` [Compound 93, (10R)-6,6-difluoro-10-methyl-3-(1H-pyrazol-4-yl)-5-oxa-2-thia-8,11-diazatricyclo [6.4.1.0^443] trideca-1(13), 3-dien-12-one], the pIC50 in assay [1] (setting [3]) was 7.55; in assay [2], above 9.00.

Turning to `O=C1NC2(CCC2)CN2CCOc3c(-c4cn[nH]c4)sc1c32` [Compound 51, 2-(1H-pyrazol-4-yl)-4,5-dihydro-6H-3-oxa-1-thia-5a,8-diazaspiro[benzo[cd]azulene-7,1′-cyclobutan]-2,2a1(9a)-dien-9(8H)-one], the pIC50 in assay [1] (COLO 205, 20 h) is 7.74; in assay [2] it was above 9.00.

In the case of `O=C1N[C@H](CO)CN2CCOc3c(-c4cn[nH]c4)sc1c32` [Compound 39, (S)-7-(hydroxymethyl)-2-(1H-pyrazol-4-yl)-4,5,7,8-tetrahydro-3-oxa-1-thia-5a,8-diazabenzo[cd]azulen-9(6H)-one], the pIC50 was 6.58 in assay [1] (setting [3]) and above 9.00 in assay [2].

Regarding `O=C1N[C@@H]([C@@H]2CC(F)(F)CN2)CN2CC(F)(F)Cc3c(-c4cn[nH]c4)sc1c32` [Compound 135, (10R)-10-[(2S)-4,4-difluoropyrrolidin-2-yl]-6,6-difluoro-3-(1H-pyrazol-4-yl)-2-thia-8,11-diazatricyclo[6.4.1.04,13]trideca-1(13),3-dien-12-one], the pIC50 was 7.57 in assay [1] (setting [3]) and above 9.00 in assay [2].

`O=C1N[C@@H](Cn2cccn2)CN2CC(F)(F)Cc3c(-c4cn[nH]c4)sc1c32` [Compound 102, (R)-7-((1H-pyrazol-1-yl)methyl)-4,4-difluoro-2-(1H-pyrazol-4-yl)-4,5,7,8-tetrahydro-3H-1-thia-5a,8-diazabenzo[cd]azulen-9(6H)-one]: the negative logarithm of the IC50 (pIC50) in assay [1] (setting [3]) is 7.18; in assay [2] it was above 9.00.

For the compound `COC[C@H]1CN2C[C@@H](F)Cc3c(-c4cn[nH]c4)sc(c32)C(=O)N1` (single isomer, unassigned) [Compound 125], the pIC50 in assay [1] (setting [3]) was 7.92; in assay [2], above 9.00.
